Where a name gives a salt, the structure may show the parent alone. Read-outs that look alike come from different tables or passages of the source.
Columns and labels:
5-HT2C [1] = biological target: T1, 5-HT2C (Homo sapiens (Human), UniProt P28335); test: IP assay (Eurofins, IP1 HTRF), HEK293 cells; format: cell-based; settings: for 5-HT2C Rmax (%): % of Rmax of 5-HT;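 on 5-HT2B EC50 (nM): agonist effect read as cellular IP1 production by HTRF using a europium cryptate anti-IP1 antibody donor and D2-labeled IP1 acceptor, eight compound concentrations in each cell line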;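 on 5-HT2B agonist activity (n.a./w.a.): agonist effect read as cellular IP1 production by HTRF using a europium cryptate anti-IP1 antibody donor and D2-labeled IP1 acceptor, eight compound concentrations in each cell line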
Protocol: (§1) The agonist properties of the compounds were characterized at HEK293 cell lines expressing the human 5-HT2A, human 5-HT2B or human 5-HT2C receptors in an IP assay essentially as previously described.^19 The testing was performed by Eurofins. In the assay, the agonist activity of the compound at the receptors is investigated by measuring its effect on IP1 production in the cell using the Homogeneous Time Resolved Fluorescence (HTRF) detection method. […] Following incubation, the cells were lysed, and the fluorescence acceptor (D2-labeled IP1) and fluorescence donor (anti-IP1 antibody labeled with europium cryptate) were added. […] The test compounds were characterized in eight different concentrations in duplicate at each of the three cell lines.

5-HT2C [2] = biological target: T1, 5-HT2C; test: Ca2+/Fluo-4 assay, stable h5-HT2C-HEK293 cell line; format: cell-based; settings: for 5-HT2C agonist activity (n.a./w.a.): tested up to 50 μM; for EC50: agonist potency, n = 3-4;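 on all read-outs here: Agonist-induced intracellular Ca2+ rise read by Fluo-4 fluorescence in HEK293 cells stably expressing the human 5-HT2C receptor, each compound run in duplicate on three or more occasions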
5-HT2A over 5-HT2C = settings: cited from earlier work
5-HT2B = 5-HT2B (Homo sapiens (Human), UniProt P41595); test: IP assay (Eurofins, IP1 HTRF), HEK293 cells; format: cell-based; settings: for EC50: duplicate determinations; for 5-HT2B Rmax: % of Rmax of 5-HT;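 on 5-HT2B EC50 (nM): agonist effect read as cellular IP1 production by HTRF using a europium cryptate anti-IP1 antibody donor and D2-labeled IP1 acceptor, eight compound concentrations in each cell line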;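 on 5-HT2B agonist activity (n.a./w.a.): agonist effect read as cellular IP1 production by HTRF using a europium cryptate anti-IP1 antibody donor and D2-labeled IP1 acceptor, eight compound concentrations in each cell line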
Protocol: as §1

human 5-HT2A [3] = biological target: T2, human 5-HT2A (Homo sapiens (Human), UniProt P28223); test: cell-based; format: cell-based; settings: for agonist response at 5-HT2A / Selectivity EC50 5-HT2C/EC50 5-HT2A: Ca2+/Fluo-4 assay; for agonist response at 5-HT2A: concentrations up to 50 μM; for EC50: agonist potency, n = 3-4; for 5-HT2A Rmax ± S.E.M: % of the Rmax of 5-HT; for Selectivity EC50 5-HT2C/EC50 5-HT2A: bounds are conservative estimates
human 5-HT2A [4] = biological target: T2, human 5-HT2A; test: cell-based; format: cell-based; settings: for agonist response at 5-HT2A: concentrations up to 100 μM; for EC50: duplicate determinations
[5] = tested on: male Sprague Dawley rats treated with ACTH or vehicle; test: forced swim test, adrenocorticotropic hormone (ACTH) model; format: in vivo
Protocol: The adrenocorticotropic hormone model (ACTH) model was conducted as previously described.^14 Male Sprague Dawley rats were used (age 7 weeks, N=50) (Taconic Biosciences A/S, Lille Skensved, Denmark). After 1 week habituation, the rats were given either 100 μg ACTH/animal/day s.c. (Adrenocorticotropic Hormone 1-24 (China Peptides, China)) at 10 a.m. for 14 days (n=30) or vehicle (VEH) consisting of 0.9% saline (n=20). At day 14, the rats were subjected to a pre-swim test (15 minutes). […] Preceding the FST, rat baseline mobility was determined in the (OFT). The OFT and the FST were conducted as described above.

[6] = tested on: Flinders Sensitive Line (FSL) rats; test: forced swim test, Flinders Sensitive Line (FSL) model; format: in vivo; settings: one hour after i.p. administration, vs vehicle-treated FSL rats, FIG. 3
Protocol: Male Flinders line rats (Flinders Sensitive Line (FSL) and their control Flinders Resistant Line (FRL); 9-11 weeks of age; 228-336 g) from the colony maintained at (TNU), Aarhus University (originally derived from the colony at the University of North Carolina, USA) were housed in pairs (Cage 1291H Eurostandard Type III H, 425×266×185 mm, Techniplast, Buguggiate, Italy) at 20±2° C. on a 12-h light/dark cycle (lights on at 07:00 am). The animals had ad libitum access to chow pellets and tap water. The animal colony was protected from outside noise, and all experimental procedures were performed in specially equipped rooms within the vivarium. […]
The following groups were included in the experiment: FRL-vehicle (n=10), FSL-vehicle (n=10), FSL-ketamine (15 mg/kg S-ketamine, Pfizer) (n=8), and FSL-compound 8 (1.5 mg/kg) (n=10). […] A camera, located directly above the center of the field, recorded the session and the total distance moved was quantified using EthoVision XT video tracking software (version 11.0.928; Noldus Information Technology, Wageningen, The Netherlands).
The rat was placed in an acrylic plastic cylinder (60 cm in height, 24 cm in diameter) containing 40 cm of water (25±1° C.) for 7 min. A camera, located directly in front of the cylinder, recorded the session. […]

[7] = IP assay, duplicate determinations, read-out: 5-HT2C EC50
[8] = IP assay, up to 100 μM (Table 4)

T1 sequence (P28335 whole entry, looked up): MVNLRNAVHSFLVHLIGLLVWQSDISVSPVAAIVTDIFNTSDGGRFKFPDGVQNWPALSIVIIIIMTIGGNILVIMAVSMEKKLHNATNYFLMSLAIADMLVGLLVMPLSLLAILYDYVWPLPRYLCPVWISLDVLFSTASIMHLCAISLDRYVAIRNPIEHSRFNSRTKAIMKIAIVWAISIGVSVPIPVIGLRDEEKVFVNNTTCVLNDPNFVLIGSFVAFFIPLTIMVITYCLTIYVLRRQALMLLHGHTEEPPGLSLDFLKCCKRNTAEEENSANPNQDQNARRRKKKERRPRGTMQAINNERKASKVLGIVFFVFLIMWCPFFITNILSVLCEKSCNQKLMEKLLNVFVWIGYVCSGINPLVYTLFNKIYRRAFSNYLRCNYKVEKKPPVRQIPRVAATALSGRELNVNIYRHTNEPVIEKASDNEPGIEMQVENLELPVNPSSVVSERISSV
Chain of 5-HT2B (P41595 whole entry, looked up): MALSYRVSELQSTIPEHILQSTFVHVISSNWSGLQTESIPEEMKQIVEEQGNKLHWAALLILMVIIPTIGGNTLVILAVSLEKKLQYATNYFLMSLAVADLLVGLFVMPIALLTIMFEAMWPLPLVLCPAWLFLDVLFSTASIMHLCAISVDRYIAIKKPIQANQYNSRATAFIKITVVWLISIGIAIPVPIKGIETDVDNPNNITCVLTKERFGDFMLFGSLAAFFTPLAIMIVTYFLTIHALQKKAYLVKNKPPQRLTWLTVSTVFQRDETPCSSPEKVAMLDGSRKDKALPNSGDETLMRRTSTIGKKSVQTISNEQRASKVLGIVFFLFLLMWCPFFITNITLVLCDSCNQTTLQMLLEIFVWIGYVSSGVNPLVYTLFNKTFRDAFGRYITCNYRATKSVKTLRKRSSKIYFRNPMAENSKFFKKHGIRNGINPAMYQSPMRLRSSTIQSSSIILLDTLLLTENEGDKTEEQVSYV

SMILES: COc1cc(CCNCc2ccccc2O)c(OC)cc1C#N [Compound 25CN-NBOH, 4-(2-((2-hydroxybenzyl)amino)ethyl)-2,5-dimethoxybenzonitrile]
- EC50 (5-HT2C [1]): 27 nM
- 5-HT2C Rmax (%) (5-HT2C [1]; IP assay): 84%

SMILES: COc1cc([C@H]2CC[C@H](c3ccccc3OC)NC2)c(OC)cc1Br [Compound 8b, reference compound]
- 5-HT2C agonist activity (n.a./w.a.) (5-HT2C [2]): w.a. [@ 10-50 μM]
- 5-HT2A-over-5-HT2C selectivity in terms of binding affinity (5-HT2A over 5-HT2C): 27 fold
- EC50 (5-HT2B; read-out: 5-HT2B EC50): > 100000 nM
- 5-HT2B agonist activity (n.a./w.a.) (5-HT2B; up to 100 μM (Table 4)): n.a. (no agonist activity: the compound did not evoke significant responses at concentrations up to 100 μM)
- agonist response at 5-HT2A (human 5-HT2A [3]): no agonist response
- 5-HT2A agonist activity (n.a./w.a.) (human 5-HT2A [3]; tested up to 50 μM): w.a. [@ 10-50 μM]
- EC50 (5-HT2C [1]; [7]): > 100000 nM
- 5-HT2C agonist activity (n.a./w.a.) (5-HT2C [1]; [8]): w.a.
- agonist response at 5-HT2A (human 5-HT2A [4]; IP assay): no agonist response
- EC50 (human 5-HT2A [4]; IP assay): > 100000 nM
- 5-HT2A agonist activity (n.a./w.a.) (human 5-HT2A [4]; [8]): n.a. (no agonist activity: the compound did not evoke significant responses at concentrations up to 100 μM)

SMILES: COc1cc(C(F)(F)F)c(OC)cc1CCN [Compound 2C-TFM, 4-trifluoromethyl-2,5-dimethoxyphenethylamine, reference compound]
- EC50 (5-HT2B; 5-HT2B EC50 (nM)): 81 nM
- 5-HT2B Rmax (5-HT2B): 81%
- EC50 (5-HT2C [1]): 3.8 nM
- Selectivity EC50 5-HT2C/EC50 5-HT2A (5-HT2C [1]; IP assay): 0.53
- 5-HT2C Rmax (%) (5-HT2C [1]; IP assay): 100%
- 5-HT2A Rmax (human 5-HT2A [4]; IP assay, % of Rmax of 5-HT): 78%
- EC50 (human 5-HT2A [4]; IP assay): 7.1 nM

SMILES: COc1cc(CC(C)N)c(OC)cc1I (stereo not shown) [DOI, 2,5-Dimethoxy-4-iodoamphetamine, reference compound]
- 5-HT2B Rmax (5-HT2B): 79%
- EC50 (5-HT2C [1]): 9.1 nM
- 5-HT2C Rmax (%) (5-HT2C [1]; IP assay): 89%
- 5-HT2A Rmax (human 5-HT2A [4]): 89%

SMILES: COc1cc([C@@H]2CCCNC2)c(OC)cc1Br [Compound 12, (S)-3-(4-bromo-2,5-dimethoxyphenyl)piperidine]
- EC50 (5-HT2C [2]; read-out: 5-HT2C EC50): > 50000 nM
- 5-HT2B Rmax (5-HT2B): 48%
- EC50 (5-HT2B; read-out: 5-HT2B EC50): 190 nM
- EC50 (human 5-HT2A [3]; read-out: 5-HT2A EC50): 69 nM
- 5-HT2A Rmax (human 5-HT2A [4]; IP assay, % of Rmax of 5-HT): 70%
- EC50 (human 5-HT2A [4]; IP assay): 250 nM

SMILES: CN(C)CCCN1c2ccccc2CCc2ccccc21 [imipramine]
- immobility time in the forced swim test, ACTH-treated rats ([5]; ACTH-treated rats, FIG. 4A): lack of effect
- immobility time in the forced swim test, vehicle-treated rats ([5]; vehicle-treated rats, 15 mg/kg i.p., FIG. 4B): significant antidepressant-like effect

SMILES: COc1cc(C(F)(F)F)ccc1[C@@H]1CCCNC1 [Compound 53, (S)-3-(2-methoxy-4-(trifluoromethyl)phenyl)piperidine hydrochloride]
- 5-HT2C agonist activity (n.a./w.a.) (5-HT2C [2]): w.a.
- 5-HT2B Rmax (5-HT2B): 51%
- EC50 (5-HT2B; read-out: 5-HT2B EC50): 940 nM
- 5-HT2A Rmax ± S.E.M (human 5-HT2A [3]): 68 ± 2%
- EC50 (human 5-HT2A [3]; read-out: 5-HT2A EC50): 69 nM
- 5-HT2A Rmax (human 5-HT2A [4]; IP assay, % of Rmax of 5-HT): 87%
- EC50 (human 5-HT2A [4]; IP assay): 250 nM

SMILES: CN[C@]1(c2ccccc2Cl)CCCCC1=O [(S)-ketamine]
- immobility time in the forced swim test [6]: reduce the immobility time

SMILES: CCOc1cc([C@@H]2CCCNC2)c(OC)cc1C(F)(F)F.Cl [Compound 20, (S)-3-(5-ethoxy-2-methoxy-4-(trifluoromethyl)phenyl)piperidine hydrochloride]
- EC50 (5-HT2C [2]; read-out: 5-HT2C EC50): 290 nM
- 5-HT2B Rmax (5-HT2B): 57%
- EC50 (5-HT2B; read-out: 5-HT2B EC50): 580 nM
- 5-HT2A Rmax ± S.E.M (human 5-HT2A [3]): 95 ± 1%
- EC50 (human 5-HT2A [3]; read-out: 5-HT2A EC50): 10 nM
- EC50 (human 5-HT2A [3]; read-out: 5-HT2A [pEC50 ± S.E.M.] (converted)): 10.2 nM
- 5-HT2A Rmax (human 5-HT2A [4]; IP assay, % of Rmax of 5-HT): 79%
- EC50 (human 5-HT2A [4]; IP assay): 36 nM

SMILES: COc1cc([C@@H]2CCCNC2)c(OC)cc1Cl [Compound 10, (S)-3-(4-Chloro-2,5-dimethoxyphenyl)piperidine]
- EC50 (5-HT2C [2]; read-out: 5-HT2C EC50): > 50000 nM
- 5-HT2C agonist activity (n.a./w.a.) (5-HT2C [2]): n.a. [@ 50 μM]^a (no agonist activity: the compound did not evoke significant responses at concentrations up to 50 μM)
- 5-HT2B Rmax (5-HT2B): 50%
- EC50 (5-HT2B; read-out: 5-HT2B EC50): 240 nM
- EC50 (human 5-HT2A [3]; read-out: 5-HT2A EC50): 66 nM
- 5-HT2A Rmax (human 5-HT2A [4]; IP assay, % of Rmax of 5-HT): 62%
- EC50 (human 5-HT2A [4]; IP assay): 380 nM

SMILES: COc1cc(C2CC[C@@H](c3ccccc3OC)NC2)c(OC)cc1Br (stereo partly shown) [Compound 8a, reference compound]
- 5-HT2C Rmax ± S.E.M (5-HT2C [2]; % of the Rmax of 5-HT): 82 ± 3%
- EC50 (5-HT2C [2]; read-out: 5-HT2C EC50): 2000 nM
- EC50 (5-HT2C [2]; read-out: 5-HT2C [pEC50 ± S.E.M.] (converted)): 1950 nM
- 5-HT2A-over-5-HT2C selectivity in terms of binding affinity (5-HT2A over 5-HT2C): 13 fold
- 5-HT2B Rmax (5-HT2B): 20%
- EC50 (5-HT2B; read-out: 5-HT2B EC50): 770 nM
- 5-HT2A Rmax ± S.E.M (human 5-HT2A [3]): 87 ± 4%
- agonist response at 5-HT2A (human 5-HT2A [3]): evoked significant agonist responses
- Selectivity EC50 5-HT2C/EC50 5-HT2A (human 5-HT2A [3]): 4.1
- Selectivity EC50 5-HT2C/EC50 5-HT2A (human 5-HT2A [3]; listed as compound 8a): only slight selectivity towards 5-HT2A over 5-HT2C
- EC50 (human 5-HT2A [3]; read-out: 5-HT2A EC50): 480 nM
- Selectivity EC50 5-HT2C/EC50 5-HT2A (5-HT2C [1]; IP assay): 0.07
- 5-HT2C Rmax (%) (5-HT2C [1]; IP assay): 80%
- EC50 (5-HT2C [1]; [7]): 170 nM
- Selectivity EC50 5-HT2C/EC50 5-HT2A (5-HT2C [1]; IP assay, listed as compound 8a): selectivity towards 5-HT2C and 5-HT2B over 5-HT2A
- 5-HT2A Rmax (human 5-HT2A [4]; IP assay, % of Rmax of 5-HT): 94%
- agonist response at 5-HT2A (human 5-HT2A [4]; IP assay): evoked significant agonist responses
- EC50 (human 5-HT2A [4]; IP assay): 2300 nM

From US11642336B2, “5-HT2A agonists for use in treatment of depression” (priority 2019, dated 2023)
